From ChEMBL document CHEMBL1201862, “PubChem BioAssay data set” (2004)
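Method: 48-hour compound exposure of cells in 96-well plates, five concentrations, linear interpolation of endpoints. GI50: concentration for 50% inhibition of growth.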 The source made the active and inactive calls. Rule as the data show it: active = GI50 up to about 1.1 µM and inactive = higher.

How the values were obtained:
Assay in all cases: DTP human tumour cell line panel, 48 h
786-0 = test system: 786-0
A498 = test system: A498
A549 = test system: A549
ACHN = test system: ACHN
CAKI-1 = test system: CAKI-1
CCRF-CEM = test system: CCRF-CEM
COLO 205 = test system: COLO 205
DLD-1 = test system: DLD-1
DMS-114 = test system: DMS-114
DMS-273 = test system: DMS-273
EKVX = test system: EKVX
HCT-116 = test system: HCT-116
HCT-15 = test system: HCT-15
HL-60 = test system: HL-60
HOP-18 = test system: HOP-18
HOP-62 = test system: HOP-62
HOP-92 = test system: HOP-92
HT-29 = test system: HT-29
IGROV-1 = test system: IGROV-1
K562 = test system: K562
KM-20L2 = test system: KM-20L2
KM12 = test system: KM12
LOX IMVI = test system: LOX IMVI
LXFL 529 = test system: LXFL 529
M14 = test system: M14
M19-MEL = test system: M19-MEL
MOLT-4 = test system: MOLT-4
Malme-3M = test system: Malme-3M
NCI-H226 = test system: NCI-H226
NCI-H23 = test system: NCI-H23
NCI-H460 = test system: NCI-H460
NCI-H522 = test system: NCI-H522
OVCAR-3 = test system: OVCAR-3
OVCAR-4 = test system: OVCAR-4
OVCAR-5 = test system: OVCAR-5
OVCAR-8 = test system: OVCAR-8
RXF 393 = test system: RXF 393
RXF 631 = test system: RXF 631
SF-268 = test system: SF-268
SF-295 = test system: SF-295
SF-539 = test system: SF-539
SK-MEL-28 = test system: SK-MEL-28
SK-MEL-2 = test system: SK-MEL-2
SK-MEL-5 = test system: SK-MEL-5
SK-OV-3 = test system: SK-OV-3
SN12C = test system: SN12C
SNB-19 = test system: SNB-19
SNB-75 = test system: SNB-75
SR = test system: SR
SW-620 = test system: SW-620
TK-10 = test system: TK-10
U-251 = test system: U-251
UACC-257 = test system: UACC-257
UACC-62 = test system: UACC-62
UO-31 = test system: UO-31
XF498 = test system: XF498
HCC 2998 = test system: HCC 2998
RPMI-8226 = test system: RPMI-8226
SNB-78 = test system: SNB-78

In the case of `CCOC(=O)C(=Cc1cccnc1C)C(=O)OCC`, the GI50 (786-0) is reported as 8.51 µM (inactive), the GI50 (A498) is reported as 10.9 µM (inactive) and the GI50 (A549) is reported as 15.6 µM (inactive). The GI50 (ACHN) was 11.9 µM (inactive), the GI50 (CAKI-1) was 6.21 µM (inactive) and the GI50 (CCRF-CEM) was 3.93 µM (inactive). The GI50 (COLO 205) was 5.6 µM (inactive), the GI50 (DLD-1) was 9.27 µM (inactive) and the GI50 (DMS-114) was 13.7 µM (inactive). The GI50 (DMS-273) was 3.82 µM (inactive), the GI50 (EKVX) was 16.4 µM (inactive) and the GI50 (HCT-116) was 5.01 µM (inactive). The GI50 (HCT-15) was 3.69 µM, the GI50 (HL-60) was 3.78 µM (inactive) and the GI50 (HOP-18) was 9.68 µM (inactive). For the same molecule, the GI50 (HOP-62) was 18.8 µM (inactive), the GI50 (HOP-92) was 7.01 µM (inactive) and the GI50 (HT-29) was 5.15 µM (inactive). The GI50 (IGROV-1) was 7.6 µM (inactive), the GI50 (K562) was 3.39 µM (inactive) and the GI50 (KM-20L2) was 3.6 µM (inactive). The GI50 (KM12) was 3.1 µM (inactive), the GI50 (LOX IMVI) was 3.71 µM (inactive) and the GI50 (LXFL 529) was 7.57 µM (inactive). The GI50 (M14) was 11.2 µM (inactive), the GI50 (M19-MEL) was 7.91 µM (inactive) and the GI50 (MOLT-4) was 12.6 µM (inactive). For the same molecule, the GI50 (Malme-3M) was 12.2 µM (inactive), the GI50 (NCI-H226) was 31.8 µM (inactive) and the GI50 (NCI-H23) was 4.09 µM (inactive). The GI50 (NCI-H460) was 15.6 µM (inactive), the GI50 (NCI-H522) was 3.89 µM (inactive) and the GI50 (OVCAR-3) was 2.67 µM (inactive). The GI50 (OVCAR-4) was 11 µM (inactive), the GI50 (OVCAR-5) was 17.9 µM (inactive) and the GI50 (OVCAR-8) was 5.18 µM (inactive). The GI50 (RXF 393) was 4.35 µM (inactive), the GI50 (RXF 631) was 11.9 µM (inactive) and the GI50 (SF-268) was 9.89 µM (inactive). The GI50 (SF-295) was 10.6 µM (inactive), the GI50 (SF-539) was 6.15 µM (inactive) and the GI50 (SK-MEL-28) was 17.5 µM (inactive). For the same molecule, the GI50 (SK-MEL-2) was 4.08 µM (inactive), the GI50 (SK-MEL-5) was 11.8 µM (inactive) and the GI50 (SK-OV-3) was 11.3 µM (inactive). For the same molecule, the GI50 (SN12C) was 4.43 µM (inactive), the GI50 (SNB-19) was 11.3 µM (inactive) and the GI50 (SNB-75) was 3.13 µM (inactive). The GI50 (SR) was 3.61 µM (inactive), the GI50 (SW-620) was 5.32 µM (inactive) and the GI50 (TK-10) was 12.9 µM (inactive). The GI50 (U-251) was 6.18 µM (inactive), the GI50 (UACC-257) was 8.09 µM (inactive) and the GI50 (UACC-62) was 6.82 µM (inactive). The GI50 (UO-31) was 5.16 µM (inactive) and the GI50 (XF498) was 12.6 µM (inactive).
`COc1ccc(-c2cc(=O)c3c(O)c(O)c(OC)cc3o2)cc1O` was tested, and the GI50 (786-0) was > 100 µM (inactive), the GI50 (A498) was > 100 µM (inactive) and the GI50 (A549) was > 100 µM (inactive). The GI50 (ACHN) was > 100 µM (inactive), the GI50 (CAKI-1) was > 100 µM (inactive) and the GI50 (CCRF-CEM) was > 100 µM (inactive). For the same molecule, the GI50 (COLO 205) was > 100 µM (inactive), the GI50 (DLD-1) was > 100 µM (inactive) and the GI50 (DMS-273) was > 100 µM (inactive). For the same molecule, the GI50 (EKVX) was > 100 µM (inactive), the GI50 (HCC 2998) was > 100 µM (inactive) and the GI50 (HCT-116) was > 100 µM (inactive). For the same molecule, the GI50 (HCT-15) was > 100 µM, the GI50 (HL-60) was > 100 µM (inactive) and the GI50 (HOP-18) was > 100 µM (inactive). The GI50 (HOP-62) was > 100 µM (inactive), the GI50 (HOP-92) was > 100 µM (inactive) and the GI50 (HT-29) was > 100 µM (inactive). For the same molecule, the GI50 (IGROV-1) was > 100 µM (inactive), the GI50 (K562) was > 100 µM (inactive) and the GI50 (KM-20L2) was > 100 µM (inactive). For the same molecule, the GI50 (KM12) was > 100 µM (inactive), the GI50 (LOX IMVI) was > 100 µM (inactive) and the GI50 (LXFL 529) was > 100 µM (inactive). The GI50 (M14) was > 100 µM (inactive), the GI50 (M19-MEL) was > 100 µM (inactive) and the GI50 (MOLT-4) was > 100 µM (inactive). For the same molecule, the GI50 (Malme-3M) was > 100 µM (inactive), the GI50 (NCI-H226) was > 100 µM (inactive) and the GI50 (NCI-H23) was > 100 µM (inactive). For the same molecule, the GI50 (NCI-H460) was 57.9 µM (inactive), the GI50 (NCI-H522) was 53.5 µM (inactive) and the GI50 (OVCAR-3) was > 100 µM (inactive). The GI50 (OVCAR-4) was > 100 µM (inactive), the GI50 (OVCAR-5) was > 100 µM (inactive) and the GI50 (OVCAR-8) was > 100 µM (inactive). For the same molecule, the GI50 (RPMI-8226) was > 100 µM (inactive), the GI50 (RXF 393) was > 100 µM (inactive) and the GI50 (RXF 631) was 92 µM (inactive). For the same molecule, the GI50 (SF-268) was 84.5 µM (inactive), the GI50 (SF-295) was > 100 µM (inactive) and the GI50 (SF-539) was > 100 µM (inactive). For the same molecule, the GI50 (SK-MEL-28) was > 100 µM (inactive), the GI50 (SK-MEL-2) was > 100 µM (inactive) and the GI50 (SK-MEL-5) was > 100 µM (inactive). The GI50 (SK-OV-3) was > 100 µM (inactive), the GI50 (SN12C) was > 100 µM (inactive) and the GI50 (SNB-19) was > 100 µM (inactive). The GI50 (SNB-75) was 31.5 µM (inactive), the GI50 (SR) was 44.5 µM (inactive) and the GI50 (SW-620) was > 100 µM (inactive). For the same molecule, the GI50 (TK-10) was > 100 µM (inactive), the GI50 (U-251) was > 100 µM (inactive) and the GI50 (UACC-257) was > 100 µM (inactive). The GI50 (UACC-62) was > 100 µM (inactive), the GI50 (UO-31) was > 100 µM (inactive) and the GI50 (XF498) was > 100 µM (inactive).
For `COc1ccc2cc1Oc1ccc(cc1)C[C@@H]1c3cc(c(OC)cc3CCN1C)Oc1c(OC)c(OC)cc3c1[C@@H](C2)N(C)CC3` [PHAEANTHINE], the GI50 (A498) was 18.5 µM (inactive), the GI50 (ACHN) was 19.2 µM (inactive) and the GI50 (CCRF-CEM) was 14.3 µM (inactive). For the same molecule, the GI50 (DLD-1) was 24.8 µM (inactive), the GI50 (DMS-273) was 17.3 µM (inactive) and the GI50 (HCC 2998) was 15.8 µM (inactive). The GI50 (HCT-116) was 2.83 µM (inactive), the GI50 (HCT-15) was 15.6 µM and the GI50 (HL-60) was 16.7 µM (inactive). For the same molecule, the GI50 (HOP-62) was 18.9 µM (inactive), the GI50 (HOP-92) was 13.2 µM (inactive) and the GI50 (IGROV-1) was 19.8 µM (inactive). The GI50 (K562) was 2.11 µM (inactive), the GI50 (KM-20L2) was 6.56 µM (inactive) and the GI50 (LXFL 529) was 18.7 µM (inactive). For the same molecule, the GI50 (M14) was 1.98 µM (inactive), the GI50 (NCI-H23) was 17.6 µM (inactive) and the GI50 (NCI-H460) was 14.3 µM (inactive). The GI50 (NCI-H522) was 15.7 µM (inactive), the GI50 (OVCAR-3) was 15.7 µM (inactive) and the GI50 (OVCAR-8) was 14.9 µM (inactive). The GI50 (RPMI-8226) was 15.6 µM (inactive), the GI50 (RXF 393) was 1.6 µM (inactive) and the GI50 (RXF 631) was 14.1 µM (inactive). The GI50 (SF-268) was 25 µM (inactive), the GI50 (SF-295) was 17.5 µM (inactive) and the GI50 (SF-539) was 10.9 µM (inactive). For the same molecule, the GI50 (SK-MEL-5) was 17.2 µM (inactive), the GI50 (SK-OV-3) was 24.7 µM (inactive) and the GI50 (SNB-19) was 16.9 µM (inactive). The GI50 (SNB-75) was 9.73 µM (inactive), the GI50 (SNB-78) was 16.6 µM (inactive) and the GI50 (SR) was 15.9 µM (inactive). For the same molecule, the GI50 (TK-10) was 19.2 µM (inactive), the GI50 (U-251) was 13.2 µM (inactive) and the GI50 (UACC-257) was 14.9 µM (inactive). The GI50 (XF498) was 6.98 µM (inactive).
